# Test results: PMC6525071 (Cell chemical biology, 2019)
# Experiments:
# cells = assay: Cell survival test of free fatty acids in the presence or absence of IKE; type: cell-based; settings: for effect of free fatty acid on ferroptosis: 10 μM, in the presence of IKE; for toxicity of free fatty acid to cells: high concentration (100 μM)
# DLBCL cell lines = assay: Rescue of IKE-induced cell death by co-treatment with ferroptosis inhibitors; type: cell-based
# SUDHL-6 cells [1] = assay: Lipid ROS by flow cytometry with C11-BODIPY; type: cell-based
# SUDHL-6 cells [2] = assay: RT-qPCR gene expression in cells; type: cell-based; settings: for effect of co-treatment on IKE-induced upregulation of lipid metabolism genes: 10 μM co-treatment with 500 nM IKE
# SUDHL6 cells [3] = assay: Untargeted lipidomics; type: cell-based; settings: for effect of co-treatment on IKE-induced lipidomic changes: 10 μM co-treatment with 500 nM IKE
# SUDHL6 cells [4] = assay: IKE PEG-PLGA cellular activity, CellTiter-Glo viability
# SUDHL-6 cells [5] = assay: Reduced glutathione measurement in cells; type: cell-based
# LY8 = assay: DLBCL cell line sensitivity to IKE, Cell Titer-Glo viability; type: cell-based; settings: read-out: cell line sensitivity class (IC50), LY8, IKE 24 hours
# HBL1 = assay: as above; type: cell-based; settings: read-out: cell line sensitivity class (IC50), HBL1, IKE 24 hours
# RIVA = assay: as above; type: cell-based; settings: read-out: cell line sensitivity class (IC50), IKE 24 hours
# U937 = assay: as above; type: cell-based; settings: read-out: cell line sensitivity class (IC50), U937, IKE 24 hours
# LY7 = assay: as above; type: cell-based; settings: read-out: cell line sensitivity class (IC50), LY7, IKE 24 hours
# SUDHL-6 cells [6] = assay: Immunofluorescence of dihydropyridine-MDA-lysine adduct in cells; type: cell-based; settings: IKE treatment
# [7] = Pharmacokinetic analysis in mice with three administration routes; type: in vivo, mouse; settings: single dose IP, IV, PO, NOD/SCID mice, 5% DMSO in HBSS at pH 4
# [8] = Pharmacokinetic analysis in NCG mice bearing SUDHL6 xenografts; type: in vivo, mouse
# [9] = system: SUDHL6 xenograft tumor tissue; assay: GSH in tumor tissue after a single IKE dose; type: in vivo, mouse; settings: single dose 50 mg/kg IKE IP, starting at 4 hours
# [10] = system: SUDHL6 xenograft tumor tissue; assay: RT-qPCR in tumor tissue after a single IKE dose; type: in vivo, mouse; settings: single dose 50 mg/kg IKE, starting at 3 h
# [11] = Mouse weight during efficacy study; type: in vivo; settings: starting from day 9
# [12] = system: SUDHL6 xenograft tumor tissue; assay: Immunofluorescence on frozen tumor sections from efficacy study; type: in vivo, mouse
# [13] = system: SUDHL6 xenograft tumor tissue; assay: TBARS assay on tumor tissue from efficacy study; type: in vivo, mouse
# caspase-3 = assay: Caspase-3 western blot on tumor tissue; type: in vivo, mouse; settings: upon IKE treatment, efficacy study
# cell lines = settings: ref Larraufie et al., 2015, cited from earlier work
# [14] = ref Larraufie et al., 2015; cited from earlier work
# GSH = settings: ref Narang et al., 2007; Lo et al., 2010; cited from earlier work
# [15] = 10 μM fer-1 with 500 nM IKE, 6 hours, SUDHL6 cells
# [16] = 10 μM fer-1 co-treatment with 500 nM IKE
# [17] = IP injection, SUDHL6 NCG xenograft mice
# [18] = single dose 50 mg/kg IP, SUDHL6-xenograft-bearing NCG mice
smiles,measurement,setting,value
CCCCCC/C=C\CCCCCCCC(=O)O [palmitoleic acid],effect of free fatty acid on ferroptosis,cells,protected against ferroptosis
CC/C=C\C/C=C\C/C=C\C/C=C\C/C=C\CCCC(=O)O [eicosapentaenoic acid],toxicity of free fatty acid to cells,cells,toxic to cells
"CCOC(=O)c1ccc(NC2CCCCC2)c(N)c1 [fer-1, ferrostatin-1]",effect of fer-1 co-treatment on cell death induced by IKE,DLBCL cell lines; DLBCL cell lines,rescued cell death
same,effect of co-treatment on IKE-induced lipid ROS signal,SUDHL-6 cells [1]; 10 μM fer-1 co-treatment,inhibited this signal
same,effect of co-treatment on IKE-induced upregulation of lipid metabolism genes,SUDHL-6 cells [2]; SUDHL6 cells,partially reversed
same,effect of co-treatment on IKE-induced CHAC1 upregulation,SUDHL-6 cells [2]; [15],did not inhibit CHAC1 upregulation
same,effect of co-treatment on IKE-induced PTGS2 upregulation,SUDHL-6 cells [2]; [15],inhibited PTGS2 upregulation
same,MAG lipids,SUDHL6 cells [3]; [16],decreased
same,TAG lipids,SUDHL6 cells [3]; [16],significantly increased
same,effect of fer-1 co-treatment on cell death induced by IKE and IKE PEG-PLGA NPs,SUDHL6 cells [4],rescued cell death
"CC(=O)N(O)CCCCCNC(=O)CCC(=O)N(O)CCCCCNC(=O)CCC(=O)N(O)CCCCCN [DFO, deferoxamine]",effect of DFO co-treatment on IKE-induced cell death,DLBCL cell lines; in culture,inhibited IKE-induced cell death
same,effect of co-treatment on IKE-induced lipidomic changes,SUDHL6 cells [3],only partially eliminated lipidomic changes
CCCCC/C=C\C/C=C\C/C=C\C/C=C\CCCC(=O)O [arachidonic acid],toxicity of free fatty acid to cells,cells,toxic to cells
"OCCS [β-ME, β-mercaptoethanol]",effect of co-treatment on IKE-induced GSH depletion,"SUDHL-6 cells [5]; 10 μM β-ME co-treatment, SUDHL6 cells, 24 hours",reversed
same,effect of co-treatment on IKE-induced upregulation of lipid metabolism genes,SUDHL-6 cells [2]; SUDHL6 cells,partially reversed
same,"effect of co-treatment on IKE-induced upregulation of SLC7A11, PTGS2 and CHAC1","SUDHL-6 cells [2]; 10 μM β-ME with 500 nM IKE, 6 hours, SUDHL6 cells",prevented
same,effect of co-treatment on IKE-induced lipidomic changes,SUDHL6 cells [3],reversed these effects
CCCCC/C=C\C/C=C\C/C=C\CCCCC(=O)O [γ-linolenic acid],toxicity of free fatty acid to cells,cells,toxic to cells
CCCCCCCC/C=C\CCCCCCCC(=O)O [oleic acid],effect of free fatty acid on ferroptosis,cells,protected against ferroptosis
"CC(C)Oc1ccc(C(=O)Cn2ccnc2)cc1-n1c(CN2CCN(C(=O)COc3ccc(Cl)cc3)CC2)nc2ccccc2c1=O [IKE, imidazole ketone erastin]",IC50,LY8,< 100 nM
same,IC50,HBL1,100 to 10000 nM
same,IC50,RIVA,100 to 10000 nM
same,IC50,U937,> 10000 nM
same,IC50,LY7,> 10000 nM
same,cellular level of reduced glutathione (GSH),"SUDHL-6 cells [5]; SUDHL6 cells, different concentrations of IKE, 24 hours",dose-dependent GSH depletion
same,IC50,"SUDHL-6 cells [5]; read-out: IC50 of GSH depletion, SUDHL-6 cells, 24 h",34 nM
same,lipid ROS (C11-BODIPY),SUDHL-6 cells [1]; different concentrations of IKE,dose-dependent increase
same,dihydropyridine-MDA-lysine-adduct abundance,SUDHL-6 cells [6],increased
same,"GPX4, CBS and ACSL4 expression","SUDHL-6 cells [2]; IKE treatment, data not shown",not upregulated
same,"SLC7A11, PTGS2 and CHAC1 expression","SUDHL-6 cells [2]; SUDHL-6 cells, 500 nM IKE",significantly increased
same,comparison of dosage routes by IKE concentration over eight hours,[7],IP to be the most effective and practical means
same,T1/2 plasma,[8]; [17],1.83 h
same,T1/2 tumor,[8]; [17],3.50 h
same,highest plasma concentration,[8]; [18],5.2 µg/mL
same,highest tumor accumulation,[8]; [18],2.5 µg/mL
same,time of highest plasma concentration,[8]; [18],1.35 h
same,time of highest tumor accumulation,[8]; [18],3.30 h
same,GSH depletion in tumor tissue,[9],over 50%
same,CHAC1 mRNA upregulation in tumor,[10],2 fold
same,PTGS2 mRNA upregulation in tumor,[10],3–5 fold
same,SLC7A11 mRNA upregulation in tumor,[10],3–5 fold
same,mouse weight,[11]; IKE 23 mg/kg daily,weight loss
same,mouse weight,[11]; IKE 40 mg/kg daily,weight loss
same,increase in 8-OH-dG intensity in tumor sections,[12]; IKE 23 mg/kg daily for 14 days,1.8 fold
same,increase in COX-2 intensity in tumor sections,[12]; IKE 23 mg/kg daily for 14 days,2.0 fold
same,increase in MDA intensity in tumor sections,[12]; IKE 23 mg/kg daily for 14 days,1.8 fold
same,increase in 8-OH-dG intensity in tumor sections,[12]; IKE 40 mg/kg daily for 14 days,2.2 fold
same,increase in COX-2 intensity in tumor sections,[12]; IKE 40 mg/kg daily for 14 days,2.8 fold
same,increase in MDA intensity in tumor sections,[12]; IKE 40 mg/kg daily for 14 days,2.0 fold
same,"MDA increase (TBARS, MDA-TBA adduct fluorescence)",[13]; IKE 23 mg/kg,1.4 fold
same,"MDA increase (TBARS, MDA-TBA adduct fluorescence)",[13]; IKE 40 mg/kg,1.8 fold
same,caspase-3 activity in tumor tissues,caspase-3,no increase in caspase-3 activity
same,potency improvement comparing to erastin,cell lines; in some cell lines,> 100 x
same,potency,cell lines,nanomolar
same,metabolic stability,[14],high
O=C(O)c1cc(/N=N/c2ccc(S(=O)(=O)Nc3ccccn3)cc2)ccc1O [sulfasalazine],IC50 for GSH depletion,GSH,millimolar range
"CCOc1ccccc1-n1c(C(C)N2CCN(C(=O)COc3ccc(Cl)cc3)CC2)nc2ccccc2c1=O (stereo not drawn) [erastin, reference compound]",metabolic stability,[14],metabolically labile
